From patent publication US20250382298A1, “NITROGEN-CONTAINING COMPOUND AND USE THEREOF” (SUZHOU GENHOUSE BIO CO., LTD., priority 2022, published 2025)
Read-outs that look alike come from different tables or passages of the source.

How the values were obtained:
OVCAR3 cells = test: Detection of cell proliferation activity by CCK8 method (OVCAR3); format: cell-based
Method in brief: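 OVCAR3 tumor cells in log-phase growth were trypsinized, counted and plated at 180 μL per well in 96-well plates, with PBS in the outer wells. The following day, compounds were added in 9 concentrations (1:5 dilutions starting at 10 μM final) in triplicate alongside DMSO controls. After 96 h, medium was swapped for 100 μL medium containing 10% CCK8. Plates were incubated 2 h at 37° C and read at 450 nm. Background-corrected inhibition relative to DMSO was fitted by non-linear regression in GraphPad Prism 7.0 to obtain IC50.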

[1] = Pharmacokinetic test in mice; format: in vivo; details: BALB/c mice; for AUC / Cmax / half-life: mouse, plasma; for half-life: read-out: t½ (converted)
Protocol: In this example, the pharmacokinetic behavior of the compounds after intravenous injection (IV) and intragastric (PO) administration in BALB/c mice was tested.
On the day of administration, mice were weighed for actual body weight and the administration volume was calculated. Each compound was tested in two groups with 9 mice in each group; one group was subjected to administration by single intravenous injection, and the other group of mice was subjected to single intragastric administration. Whole blood samples were collected via the orbit at prescribed time points (0.25 h, 0.5 h, 1 h, 2 h, 4 h, 8 h, and 24 h after administration). After blood sample collection, the samples were immediately transferred to labeled commercial sample tubes containing K2-EDTA (0.85-1.15 mg), followed by centrifugation (3200×g, 4° C., 10 min) and plasma collection. The plasma was transferred to a pre-cooled centrifuge tube, frozen in dry ice, and then stored in an ultra-low temperature freezer at −60° C. or lower until the LC-MS/MS analysis.
Plasma concentrations were determined by the LC-MS/MS method. Plasma drug concentration data for the compounds were processed using a non-compartmental model in the WinNonlin Version 6.3 (Pharsight, Mountain View, CA) pharmacokinetic software. The relevant pharmacokinetic parameters were calculated by a linear-log trapezoidal method.

hERG potassium channel = hERG potassium channel (Homo sapiens (Human), UniProt Q12809); test: hERG whole-cell patch clamp (Qpatch) in HEK293 cells; format: cell-based; details: top concentration 30 μM
Chain of hERG potassium channel (Q12809 whole entry): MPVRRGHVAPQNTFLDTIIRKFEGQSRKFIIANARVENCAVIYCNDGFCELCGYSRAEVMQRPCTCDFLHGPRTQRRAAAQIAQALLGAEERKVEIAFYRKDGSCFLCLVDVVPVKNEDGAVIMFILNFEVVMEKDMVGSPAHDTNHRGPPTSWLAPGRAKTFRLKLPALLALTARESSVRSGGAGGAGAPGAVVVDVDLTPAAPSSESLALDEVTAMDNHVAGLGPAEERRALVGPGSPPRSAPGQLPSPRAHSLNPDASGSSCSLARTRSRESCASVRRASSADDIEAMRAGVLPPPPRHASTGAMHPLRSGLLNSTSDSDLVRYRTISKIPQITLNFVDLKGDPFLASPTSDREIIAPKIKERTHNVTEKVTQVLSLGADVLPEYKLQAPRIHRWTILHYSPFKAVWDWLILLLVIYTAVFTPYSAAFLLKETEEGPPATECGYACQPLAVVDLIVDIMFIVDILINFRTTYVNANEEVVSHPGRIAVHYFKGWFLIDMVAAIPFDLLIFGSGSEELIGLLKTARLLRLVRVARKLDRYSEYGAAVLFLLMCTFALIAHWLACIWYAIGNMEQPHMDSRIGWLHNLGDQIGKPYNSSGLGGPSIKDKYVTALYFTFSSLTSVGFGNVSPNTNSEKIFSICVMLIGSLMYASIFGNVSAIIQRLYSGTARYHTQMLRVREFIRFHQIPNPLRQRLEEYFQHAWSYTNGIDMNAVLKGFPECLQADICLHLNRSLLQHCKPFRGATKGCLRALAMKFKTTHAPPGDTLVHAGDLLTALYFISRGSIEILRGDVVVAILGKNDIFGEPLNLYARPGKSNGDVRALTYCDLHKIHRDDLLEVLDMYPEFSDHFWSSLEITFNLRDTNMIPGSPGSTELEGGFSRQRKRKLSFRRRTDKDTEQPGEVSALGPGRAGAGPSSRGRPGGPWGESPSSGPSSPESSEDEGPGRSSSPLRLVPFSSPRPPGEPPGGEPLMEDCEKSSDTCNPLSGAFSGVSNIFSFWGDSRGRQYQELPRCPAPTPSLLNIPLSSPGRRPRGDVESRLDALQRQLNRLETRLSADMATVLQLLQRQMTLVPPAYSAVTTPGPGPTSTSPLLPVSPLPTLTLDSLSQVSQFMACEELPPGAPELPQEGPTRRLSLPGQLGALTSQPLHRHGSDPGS
Protocol: HEK293 cells were cultured in a DMEM medium containing 10% fetal bovine serum and 0.8 mg/mL G418 at 37° C. with 5% CO2. The cells were digested by TrypLE™ Express and then centrifuged. The cell density was adjusted to 2×10^6 cells/ml. The cells were then gently mixed for 15-20 min using a shaker equilibrated at room temperature, and subjected to patch clamping on a machine. The medium of the prepared cells was replaced with extracellular fluid. The intracellular fluid and the extracellular fluid were taken from the fluid pool, and added to the intracellular fluid pool and the cell and test substance pool of the QPlate chip, respectively. The voltage stimulation of the whole-cell hERG potassium current was recorded by the whole-cell patch clamp, and the experimental data was collected and stored by Qpatch. The test compound was 3-fold diluted starting from 30 μM to obtain 6 concentration points, each for two administrations over a period of at least 5 min. The current detected in compound-free extracellular fluid for each cell served as its own control group, and the detection was repeated at least twice independently using two cells per concentration. All electrophysiological experiments were performed at […].
For data analysis, the current after the action of each drug concentration and the current of the blank control were standardize
and then the inhibition rate corresponding to each drug concentration was calculated
The mean and standard error were calculated for each concentration, and the half maximal inhibitory concentration of each compound was calculated:
The dose-dependent effect was subjected to non-linear fitting using the above equation, where Y represents the inhibition rate, C represents the concentration of the test substance, IC50 is the half maximal inhibitory concentration, and HillSlope represents the Hill coefficient. Curve fitting and calculation of IC50 were performed using the Graphpad software.

[2] = target: cytochrome oxidase P450 1A2 (Homo sapiens (Human), UniProt P05177); test: Inhibition of cytochrome oxidase P450 1A2; format: in vitro ADME; details: liver microsomes, CYP1A2
Chain of cytochrome oxidase P450 1A2 (P05177 whole entry): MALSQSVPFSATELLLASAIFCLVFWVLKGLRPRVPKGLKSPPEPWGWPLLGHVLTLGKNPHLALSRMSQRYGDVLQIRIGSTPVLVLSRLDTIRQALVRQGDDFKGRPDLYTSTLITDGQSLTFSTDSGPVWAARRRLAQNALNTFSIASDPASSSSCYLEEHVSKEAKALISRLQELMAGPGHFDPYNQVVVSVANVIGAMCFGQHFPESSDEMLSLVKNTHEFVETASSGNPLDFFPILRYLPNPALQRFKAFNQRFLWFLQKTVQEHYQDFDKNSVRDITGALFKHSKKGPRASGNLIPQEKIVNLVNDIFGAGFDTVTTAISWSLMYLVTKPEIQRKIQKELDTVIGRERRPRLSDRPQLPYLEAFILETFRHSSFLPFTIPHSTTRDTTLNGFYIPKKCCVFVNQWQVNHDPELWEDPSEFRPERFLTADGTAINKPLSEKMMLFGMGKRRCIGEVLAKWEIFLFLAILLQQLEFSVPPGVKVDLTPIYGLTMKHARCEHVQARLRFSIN

[3] = target: cytochrome oxidase P450 2D6 (Homo sapiens (Human), UniProt P10635); test: Inhibition of cytochrome oxidase P450 2D6; format: in vitro ADME; details: liver microsomes, CYP2D6
Chain of cytochrome oxidase P450 2D6 (P10635 whole entry): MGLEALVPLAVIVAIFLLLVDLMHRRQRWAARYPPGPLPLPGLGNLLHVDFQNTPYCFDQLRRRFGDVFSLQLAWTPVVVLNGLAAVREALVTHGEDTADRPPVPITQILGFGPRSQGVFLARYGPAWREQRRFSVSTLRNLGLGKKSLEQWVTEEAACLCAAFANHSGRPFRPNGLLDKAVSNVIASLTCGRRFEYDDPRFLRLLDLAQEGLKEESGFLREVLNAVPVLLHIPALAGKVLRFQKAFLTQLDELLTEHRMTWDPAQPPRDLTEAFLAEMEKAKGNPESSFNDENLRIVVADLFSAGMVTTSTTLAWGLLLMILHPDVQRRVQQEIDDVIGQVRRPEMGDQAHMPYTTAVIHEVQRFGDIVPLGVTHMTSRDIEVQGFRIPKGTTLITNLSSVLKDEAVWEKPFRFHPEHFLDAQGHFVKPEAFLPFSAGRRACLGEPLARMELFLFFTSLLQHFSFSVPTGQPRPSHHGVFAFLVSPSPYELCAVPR

[4] = target: cytochrome oxidase P450 3A4 (Homo sapiens (Human), UniProt P08684); test: Inhibition of cytochrome oxidase P450 3A4 (Midazolam); format: in vitro ADME; details: liver microsomes, CYP3A4, Midazolam
Chain of cytochrome oxidase P450 3A4 (P08684 whole entry): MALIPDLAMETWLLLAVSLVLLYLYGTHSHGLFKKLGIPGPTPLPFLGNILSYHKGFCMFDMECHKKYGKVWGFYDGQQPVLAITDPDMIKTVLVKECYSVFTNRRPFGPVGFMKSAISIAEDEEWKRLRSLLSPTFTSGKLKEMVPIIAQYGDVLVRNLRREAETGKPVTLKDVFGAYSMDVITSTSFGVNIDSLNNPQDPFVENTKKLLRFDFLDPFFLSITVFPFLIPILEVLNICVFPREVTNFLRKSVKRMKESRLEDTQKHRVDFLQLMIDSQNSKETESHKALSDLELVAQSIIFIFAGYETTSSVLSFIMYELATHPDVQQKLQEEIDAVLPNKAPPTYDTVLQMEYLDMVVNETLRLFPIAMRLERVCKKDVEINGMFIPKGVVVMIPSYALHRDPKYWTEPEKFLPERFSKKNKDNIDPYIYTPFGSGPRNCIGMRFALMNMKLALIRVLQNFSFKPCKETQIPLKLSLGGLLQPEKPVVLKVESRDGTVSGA

[5] = system: Human colon cancer HT-29 cells; test: Pharmacodynamic experiment in mice, subcutaneous HT-29 tumor; format: in vivo; details: 20 mpk BID intragastric, after 16 days of administration, HT-29 subcutaneous tumor in mice
Protocol: Human colon cancer HT-29 cells were cultured in monolayer in vitro under the following conditions: DMEM medium containing 10% fetal bovine serum and 1% penicillin and streptomycin, at 37° C. with 5% CO2. The cells were digested with trypsin three times a week for passaging. When the saturation degree of the cells was 80%-90%, the cells were collected, counted, and inoculated, 0.1 mL (1×10^6 cells) of HT-29 cells were subcutaneously inoculated on the tight back of each mouse. On day 11 after inoculation of the cells, the mean tumor volume reached 325 mm^3. The mice were randomly grouped for administration (the animals were divided into an administration group and a control group, with 6 animals in each group). The day of grouping was defined as d0, and intragastric administration was started on d1. The administration was performed twice daily at an administration volume of 10 mL/kg. Vehicle control was adminstered to the control group. The tumor volume was measured 2-3 times per week, and meanwhile, the mice were weighed and the data were recorded; daily observations were made to record the body surface signs of the mice. After the experiment was completed, the tumors were removed, weighed, and photographed for recording.
Calculation formula for tumor volume: […]

[6] = Homo sapiens, OVCAR-3, CCK8, 96 h

IC50 (OVCAR3 cells; [6]) [nM]	F ([1]; PO @5mpk) [%]	AUC ([1]; 5 mg/kg, PO @5mpk) [µM·h]	Cmax ([1]; 5 mg/kg, PO @5mpk) [µM]	half-life ([1]; 5 mg/kg, PO @5mpk) [h]	IC50 [2] [nM]	IC50 [3] [nM]	IC50 [4] [nM]	F ([1]; PO @30mpk) [%]	AUC ([1]; 30 mg/kg, PO @30mpk) [µM·h]	Cmax ([1]; 30 mg/kg, PO @30mpk) [µM]	half-life ([1]; 30 mg/kg, PO @30mpk) [h]	Compound	IC50 (hERG potassium channel) [nM]	TGI [5] [%]	IC50 (OVCAR3 cells; CCK8, 96 h) [nM]
145	87	74.8	4.25	44.5								Cc1cc(NC(=O)c2ccc(NS(=O)(=O)CCO)cc2N2CC3CCC(C3)C2)nc(N2CCC(F)(F)CC2)n1 [Compound 3]			
57	44	13.5	1.55	4.7	> 10000	> 10000	> 10000					O=C(Nc1cc2ccccc2c(N2CCC(F)(F)CC2)n1)c1ccc(NS(=O)(=O)CCO)cc1N1CCC2(CC1)CC2 [Compound 6]	> 30000		
7.2	97	6.87	1.61	1.2	> 10000	> 10000	> 10000					O=C(Nc1cn2ccnc2c(N2CCC(F)(F)CC2)n1)c1ccc(NS(=O)(=O)CCO)cc1N1CCC2(CC1)CC2 [Compound 8]	> 30000		
	79	17.8	1.77	3.4								O=C(Nc1cc2ccsc2c(N2CCC(F)(F)CC2)n1)c1ccc(NS(=O)(=O)CCO)cc1N1CCC2(CC1)CC2 [Compound 15]			
	116	13.3	2.69	3.3								O=C(Nc1cn2ccnc2c(N2CCC(F)(F)CC2)n1)c1ccc(NS(=O)(=O)CCO)cc1N1CC2CCC(C2)C1 [Compound 17]			
23.1	101	58.3	3.92	14.9	> 10000	> 10000	> 10000	92	320	15.3	16.5	CS(=O)(=O)Nc1ccc(C(=O)Nc2cn3ccnc3c(N3CCC(F)(F)CC3)n2)c(N2CC3CCC(C3)C2)c1 [Compound 19]	> 30000	111.82	
3.4	107	60.9	4.17	4	> 10000	> 10000	> 10000	61	207	15.3	5.4	O=C(Nc1cc2cccnc2c(N2CCC(F)(F)CC2)n1)c1ccc(NS(=O)(=O)CCO)cc1N1CCC2(CC1)CC2 [Compound 21]	> 30000		
3.4								218	79.8	14.6	10	O=C(Nc1cc2cc[nH]c2c(N2CCC(F)(F)CC2)n1)c1ccc(NS(=O)(=O)CCO)cc1N1CCC2(CC1)CC2 [Compound 22]			
5.7												O=C(Nc1cn2ncnc2c(N2CCC(F)(F)CC2)n1)c1ccc(NS(=O)(=O)CCO)cc1N1CCC2(CC1)CC2 [Compound 23]			
												O=C(Nc1cn2cnnc2c(N2CCC(F)(F)CC2)n1)c1ccc(NS(=O)(=O)CCO)cc1N1CCC2(CC1)CC2 [Compound 24]			12.3
10.6	257	70.1	6.39	3.7	> 10000	> 10000	> 10000	147	220	15.2	9.6	O=C(Nc1cn2c(F)cnc2c(N2CCC(F)(F)CC2)n1)c1ccc(NS(=O)(=O)CCO)cc1N1CCC2(CC1)CC2 [Compound 34]		105.10	
8					> 10000	2240	240					CS(=O)(=O)Nc1ccc(C(=O)Nc2cc3cc[nH]c3c(N3CCC(F)(F)CC3)n2)c(N2CCC3(CC2)CC3)c1 [Compound 47]		108.84	
